Measurements taken from article PMC8338929, “Acetylation turns leucine into a drug by membrane transporter switching” (Scientific Reports, 2021).
pIC50: −log10 of the molar value.

Molecular target: T1, Human OAT1 (SLC22A6) (Homo sapiens, UniProt Q4U2R8)
T1 construct: host or cells: HEK-293
T1 sequence (Q4U2R8 1-563): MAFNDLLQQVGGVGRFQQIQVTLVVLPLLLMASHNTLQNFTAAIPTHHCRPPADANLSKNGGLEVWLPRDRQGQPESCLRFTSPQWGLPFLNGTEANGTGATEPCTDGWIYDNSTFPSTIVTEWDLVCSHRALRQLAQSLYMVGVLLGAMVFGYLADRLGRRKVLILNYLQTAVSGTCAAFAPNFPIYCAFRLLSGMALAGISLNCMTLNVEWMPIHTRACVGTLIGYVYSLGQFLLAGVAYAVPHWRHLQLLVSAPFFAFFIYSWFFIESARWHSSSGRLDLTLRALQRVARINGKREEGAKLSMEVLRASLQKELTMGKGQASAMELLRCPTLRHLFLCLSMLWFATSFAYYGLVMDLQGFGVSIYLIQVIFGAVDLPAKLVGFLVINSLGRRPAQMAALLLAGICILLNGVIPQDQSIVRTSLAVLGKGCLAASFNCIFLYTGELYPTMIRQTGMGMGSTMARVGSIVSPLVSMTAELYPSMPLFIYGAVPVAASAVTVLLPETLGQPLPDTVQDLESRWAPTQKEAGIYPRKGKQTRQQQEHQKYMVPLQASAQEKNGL
Assay: Inhibition of OAT1 uptake of probe substrate chlorothiazide in HEK-293 cells
Assay type: cell-based
Conditions: probe chlorothiazide 3 µM; positive control diclofenac 100 µM
Protocol: Cells were grown in DMEM (Gibco 4196, high glucose, without sodium pyruvate) supplemented with MEM non-essential amino acids and 10% fetal bovine serum. Cells were re-fed with fresh medium after attachment (4–6 h post-seeding). Cell were plated at a density of 4 × 10^5/well in 24-well plates coated with poly-D-lysine. Transporter assays were conducted in 400 µL of HBSS supplemented with 10 mM Hepes, pH 7.4
The known probe substrates used as positive controls were 3 μM chlorothiazide for OAT1, 2 μM estrone-3-sulfate for OAT3, 10 µM [^3H]gabapentin for LAT1, 50 µM [^3H]Gly-Sar for PepT1, 500 µM thiophene-2-glyoxylic acid for MCT1. The known inhibitors used as controls for each transporter were 100 μM diclofenac for OAT1 and OAT3, 10 µM JPH203 for LAT1 and 200 µM losartan for PepT1. All incubations were in triplicate and contained 1% (OAT1 and OAT3) or 0.5% DMSO (LAT, PepT1 and MCT1). […]
[I] is the inhibitor concentration and IC50 is the inhibitor concentration where the remaining activity is at the midpoint between the Top and Bottom. […] In inhibition experiments, the IC50 is not equivalent to affinity because it is dependent on the concentrations of the substrate, the inhibitor and affinity; therefore, we assumed competitive inhibition, and calculated affinity of inhibition (Ki) with the Cheng-Prusoff equation[49].

pIC50: 2.21
Structure (SMILES): CC(=O)N[C@@H](CC(C)C)C(=O)O [N-acetyl-L-leucine]
